The source of these data is US11299447B2, “Method for isolating a carboxylic acid from an aqueous solution” (PURAC BIOCHEM BV, priority 2011, dated 2022).

The structures appear in SMILES notation.

Type in all cases: physicochemical
Data set [1] is described as follows: Solvent solubility in aqueous MgCl2 solution (gas chromatography of aqueous phase). As for the experimental part:
Hereafter, the stirring was stopped, the phases were allowed to separate and a sample was taken from the aqueous bottom phase. The concentration of solvent in this sample was determined by gas chromatography.

The nature of data set [2]: Extraction of different types of polycarboxylic acids. To be noted: for DBE: distribution ratio in back extraction; for DFE: distribution ratio in forward extraction, feed 15 wt. % MgCl2. An excerpt:
These tables also give the concentration ratio, which is the ratio between the acid concentration in the product and the acid concentration in the feed.

The nature of data set [3]: Stability of extraction solvent in contact with 2-hydroxy butyric acid feed solution (gas chromatography). Conditions: 60° C. As for the experimental part: This experiment was conducted to compare the stability of two solvents, MIBK and Isoamyl alcohol in contact with the 2-hydroxy butyric acid feed solution prepared by adding 340 g of crystalline hydroxy butyric acid to 720 g water and mixing to complete dissolution. The thus prepared feed solution comprised 32 wt % of hydroxy butyric acid.
For each solvent a closed glass reactor was filled with 20 g of solvent and 20 g of the hydroxy butyric acid feed solution, put in an oven to maintain a temperature of 60° C. and shaken continuously. After 3 hours, 24 hours (1 day) and 168 hours (1 week) the shaking was stopped for 1 hour to allow the phases to settle, a sample was taken from the solvent top layer, and the composition of the solvent top layer analyzed by gas chromatography.

Data set [4] in a line: Lactic acid distribution ratio MIBK/aqueous MgCl2 solution. Conditions: initial lactic acid 20 wt %. The text has this:
Forward extraction and back extraction as used in the method of the invention are based on the difference in solubility of the carboxylic acid in water and the organic solvent at different temperatures. The solubility of a compound in one solvent relative to another solvent can be expressed in terms of the distribution ratio (DR). This ratio gives an indication how a compound will be distributed over the aqueous phase (e.g. the aqueous mixture) and the organic phase (e.g. the organic liquid) in a two-phase system at equilibrium. The distribution ratio may be defined as the ratio of the carboxylic acid concentration dissolved in the organic phase ([carboxylic acid]organic) over the concentration of the carboxylic acid dissolved in water ([carboxylic acid]water), provided that the two phases are in equilibrium with each other: DR=[carboxylic acid]organic/[carboxylic acid]water (1)
The resulting two phase system was stirred at 20° C. or 60° C. for 30 minutes with sufficient speed to ensure that both phases are well dispersed. Hereafter, the stirring is stopped, the phases were allowed to separate and samples were taken from both phases. The concentration of lactic acid (wt %) in these samples was determined by potentiometric titration. Hereafter the distribution ratio was calculated as the ratio of the lactic acid concentration (wt %) in the MIBK organic solvent phase divided by the lactic acid concentration (wt %) in the aqueous phase.

[5] abbreviates: Table 2.2, MgCl2 0 wt %, 20° C.
Setting [6] is: Table 2.2, MgCl2 15 wt %, 20° C.
Setting [7] is: Table 2.2, MgCl2 30 wt %, 20° C.

Consider `CC(C)OC(C)C` [Diisopropyl ether, reference compound], for which the Solvent solubility in data set [1] (setting [5]) came to 1.0 wt %; in data set [1] (setting [6]), 0.4 wt %; in data set [1] (setting [7]) it was 0.7 wt %.

As to `O=C(O)/C=C/C(=O)O` [Fumaric acid, fumaric acid], in data set [2], the DFE/DBE was determined as 7.29, the DBE was determined as 0.24 and the DFE is 1.75.

As for `CC(C)CCO` [Isoamyl alcohol, reference compound], the Solvent solubility in data set [1] (setting [5]) is listed as 2.8 wt %; in data set [1] (setting [6]) it was 1.5 wt %; in data set [1] (setting [7]) it was 0.6 wt %. Further, in data set [3] (20 g solvent + 20 g 32 wt % hydroxy butyric acid feed, after 3 hours), the “isoamylhydroxybutyrate formed in solvent layer” value was 14.3 area %. The “isoamylhydroxybutyrate concentration in solvent layer” value in data set [3] (after 24 hours) and in data set [3] (after 168 hours) was 21.5 area % in each case.

Take `C=C(CC(=O)O)C(=O)O` [Itaconic acid, itaconic acid]: in data set [2], the DFE/DBE was determined as 2.64, the DBE is recorded as 1.07 and the DFE was 2.83.

Take `CC(=O)CC(C)C` [MIBK, methyl-isobutylketone]: the MIBK solubility in data set [1] (MgCl2 0 wt %, 20° C.) is recorded as 1.8 wt %; in data set [1] (MgCl2 0 wt %, 60° C.), 1.4 wt %; in data set [1] (MgCl2 15 wt %, 20° C.), 0.48 wt %; in data set [1] (MgCl2 15 wt %, 60° C.), 0.20 wt %; in data set [1] (MgCl2 30 wt %, 20° C.), 0.17 wt %; in data set [1] (MgCl2 30 wt %, 60° C.), 0.11 wt %. In addition, the Solvent solubility in data set [1] (setting [5]) worked out at 1.8 wt %; in data set [1] (setting [6]), 0.5 wt %; in data set [1] (setting [7]) it was 0.1 wt %. The “changes in the purity of the solvent” value in data set [3] (20 g solvent + 20 g 32 wt % hydroxy butyric acid feed, after 168 hours) was “no changes in the purity of the MIBK could be detected”.

For `CC(O)C(=O)O` (stereo not shown) [lactic acid], the “Lactic acid distribution ratio” value in data set [4] (MgCl2 0 wt %, 20° C.) turned out to be 0.16 wt %/wt %; in data set [4] (MgCl2 0 wt %, 60° C.) it was 0.19 wt %/wt %; in data set [4] (MgCl2 10.5 wt %, 20° C.), 0.33 wt %/wt %; in data set [4] (MgCl2 10.5 wt %, 60° C.) it was 0.37 wt %/wt %; in data set [4] (MgCl2 16.0 wt %, 20° C.) it was 0.49 wt %/wt %; in data set [4] (MgCl2 16.0 wt %, 60° C.), 0.56 wt %/wt %.
